{"source": "PubChem BioAssay AID1344", "about": "(Sanford-Burnham Center for Chemical Genomics, 2008)"}
{"system": "CSM14.1 thapsigargin death, annexin V/PI flow, 24 h", "assay": "annexin V/PI survival after thapsigargin – cell-based, undifferentiated CSM14.1, flow cytometry, orthogonal assay for ER stress death inhibitor project, late-stage follow-up (AID 1344)", "conditions": "at 25 µM; stronger effect = higher value", "units": {"survival": "%"}}
{"smiles": "COc1ccc(C2CC(=O)C3=C(C2)Nc2ccccc2NC3c2cccc(C(F)(F)F)c2)cc1OC", "note": "(stereo unspecified)", "survival": 95}
{"smiles": "CCOc1cccc(C2Nc3ccccc3NC3=C2C(=O)CC(c2ccc(OC)cc2)C3)c1", "note": "(stereo unspecified)", "survival": 90}
{"smiles": "COc1ccc(C2CC(=O)C3=C(C2)Nc2ccccc2NC3c2cc(C)ccc2C)cc1", "note": "(stereo unspecified)", "survival": 95}
{"smiles": "COc1ccc(C2CC(=O)C3=C(C2)Nc2ccccc2NC3c2ccccc2C(F)(F)F)cc1OC", "note": "(stereo unspecified)", "survival": 96}
{"smiles": "CC1(C)CC(=O)C2=C(C1)Nc1ccccc1NC2c1ccc(-c2ccccc2)cc1", "note": "(stereo unspecified)", "survival": 97}
{"smiles": "CCOc1cc(C2Nc3ccccc3NC3=C2C(=O)CC(c2ccc(OC)cc2)C3)cc(Cl)c1O", "note": "(stereo unspecified)", "survival": 93}
{"smiles": "O=C1CC(c2ccccc2)CC2=C1C(c1c(F)cccc1Cl)Nc1ccccc1N2", "note": "(stereo unspecified)", "survival": 96}
{"smiles": "COc1ccc(C2CC(=O)C3=C(C2)Nc2ccccc2NC3c2cccc(Br)c2)cc1OC", "note": "(stereo unspecified)", "survival": 96}
{"smiles": "CCCOc1ccc(C2Nc3ccccc3NC3=C2C(=O)CC(c2ccc(OC)c(OC)c2)C3)cc1", "note": "(stereo unspecified)", "survival": 92}
{"smiles": "COc1ccc(C2CC(=O)C3=C(C2)Nc2ccccc2NC3c2cccc(Oc3ccccc3)c2)cc1OC", "note": "(stereo unspecified)", "survival": 95}
{"smiles": "CSc1ccc(C2Nc3ccccc3NC3=C2C(=O)CC(c2ccccc2)C3)cc1", "note": "(stereo unspecified)", "survival": 96}
